Measurements reported in patent US20130253179A1, “Functionalization Processes and Reactants Used in Such Processes Using an Isatoic Anhydride or a Derivative Thereof, Biological Molecules Thus Treated and Kits” (priority 2010, published 2013).

How the values were obtained:
[1] = tested on: model oligoribonucleotide (ORN) with 27 bases; experiment: Functionalisation of a model ORN with 27 bases: functionalisation rate and regiospecificity by HPLC/LC-MS after nuclease P1/alkaline phosphatase hydrolysis; type: biochemical; conditions: for Fr (corrected functionalisation rate): ORN 8 nmol; for Fr (corrected functionalisation rate) / External/internal regiospecificity (uncorrected ratio of areas acylated mononucleosides / acylated dinucleotides): compound 30 mM, 1 h at 65° C., 250 mM TEAAc pH 7, 25% DMSO
Description: For this purpose, a fixed quantity of ORN is reacted with an isatoic anhydride derivative conjugated to a molecule of interest (Cy3 IA Me (13)), under various temperature conditions, duration conditions, reaction medium conditions, etc. HPLC monitoring of the reaction at 260 nm makes it possible to detect the disappearance of the peak corresponding to the initial ORN and the appearance of peaks corresponding to acylated ORN. These products have a greater retention time and have an absorption spectrum corresponding to both that of ORN and that of the fluorescent label.
However, for greater precision on the functionalisation site and to precisely evaluate the functionalisation rate (Fr), the ORN population (labelled and unlabelled) is separated from the excess label by precipitation with acetone/lithium perchlorate or by gel permeation (NAP 5™, GE Health Care. Then the ORNs thus obtained are submitted to hydrolysis with the nuclease P1 (Aldrich, Saint Louis, USA) and with the alkaline phosphatase (Aldrich, Saint Louis, USA), in order to hydrolyse the phosphate diester bonds of ORN.
The ORN functionalisation rate (Fr) is evaluated by measuring: • the area corresponding to the terminal mononucleoside adducts (functionalised at 2′ and at 3′) and the area corresponding to the acylated dinucleosides (functionalised internally on 2′OH) • compared to the area of the peaks corresponding to the four ribonucleosides.
The internal/external regiospecificity of the acylation is evaluated by measuring the relative proportion of the areas corresponding to the: • end mono-nucleotides acylated at 2′ and at 3′ • and di-nucleotides acylated internally on 2′OH • which are easily detectable by HPLC.
The mixture is incubated for 60 minutes at 65° C. in an oven on a rack which is temperature-balanced in advance. An HPLC injection (conditions 3) makes it possible to monitor a formation of a certain quantity of acylated ORN as described in FIG. 6. To eliminate the salts and the excess label, the mixture is then purified on Sephadex NAP 5 gel (GE Health Care, Uppsala, Sweden)) and/or triple precipitation in 1.2 mL of a 180 mM Acetone/LiClO4 75/25 mixture. To finish, the pellet is dried with acetone and is evaporated with the centrifugal evaporator (RCT 60, Jouan, St Herblain, France). The residue is then taken up in 33 μL of a H2O/DMSO 85/15 solution and an HPLC injection (conditions 3) is performed in order to verify the proper elimination of the label. There is added to the mixture 2 μL of nuclease P1 (ref.: N8630 Sigma-Aldrich, St Louis, USA) in 1 U/μl solution in its buffer: 20 mM sodium acetate pH 5.5; 1 mM ZnCl2; 50 mM NaCl and 1 μL of 7 u/μl alkaline phosphatase in water (Ref. P7923-2KU Sigma-Aldrich, St Louis, USA). The medium is left at ambient temperature for 4 to 6 hours. It is then injected into HPLC (conditions 3) in order to verify the total hydrolysis of the ORN and in order to analyse the nature of the fragments obtained in accordance with what was described above and as described in FIG. 6.
The functionalisation rate is evaluated with UV at 260 nm by integration of the clusters corresponding to the acylated dinucleotides and to the acylated nucleosides) relative to the clusters corresponding to the four ribonucleosides. The ratio of the population of acylated dinucleotides to the population of acylated nucleosides is evaluated in the same way in order to evaluate the percentage of functionalisation on the 3′ terminal end.
The functionalisation rate values, presented within the framework of this invention, take into account the correction factor which must be applied according to the molar extinction coefficient at 260 nm of each of the nucleosides and according to whether they are nucleosides or dinucleotides. […]

[2] = tested on: ODN with 53 bases; experiment: RNA vs DNA chemoselectivity: functionalisation of an ODN with 53 bases; type: biochemical; conditions: compound 30 mM, DMSO/TEAAc buffer 25/75 (250 mM pH 7), 1 h at 65° C.
Protocol: After precipitation with acetone and hydrolysis with nuclease P1 and alkaline phosphatase, the hydrolysed fragments are analysed by LC-MS, as described in example 3. An example of the chromatograms monitoring the reaction of ODN or ORN with compound 13 is shown in FIG. 9, in which graphs A, B and C respectively represent ORN, ORN functionalised with compound 13 and precipitated, and ORN functionalised with 13, precipitated and hydrolysed. Graphs D, E and F represent the same thing, but with ODN.

[3] = tested on: MAQC RNA; experiment: DoL of MAQC total RNA after zinc acetate cleaving and alkaline phosphatase treatment; type: biochemical, human; conditions: compound 15 mM
Protocol: The panel of RNA strands is MAQC RNA (Stratagene Reference: #74000). This total RNA (ribosomal and messenger) is directly extracted from ten lines of human cells of different origin: brain, breast, B Lymphocyte, uterine cervix, liver, liposarcoma, macrophage, skin, testicle, Lymphocyte T.
The functionalisation protocol is the same as that described in example 9, i.e.: • 12 μg of MAQC0 RNA is incubated, or not, with a Zinc acetate solution. • The mixture is precipitated with isopropanol. • 7 units of alkaline phosphatase (P7923-2KU Sigma-Aldrich) are added to the mixture, […] There is then added to the mixture the molecule Cy3-IA Me 13 at 15 mM in a NaHCO3 buffer (100 mM/DMSO 75/25 pH 8-8.5), with a total volume of 80 μl. The mixture is incubated for 1 h at 65° C. • The mixture is precipitated once again with isopropanol, then twice with acetone, before the DoL is measured as described in example 9.

[4] = FIG. 6 graph D, share of functionalised adducts

| SMILES | Fr (corrected functionalisation rate) [1] | External/internal regiospecificity (uncorrected ratio of areas acylated mononucleosides / acylated dinucleotides) [1] | corrected functionalisation rate of the ODN [2] | acylated dinucleotides (peak 1) [1, 4] | nucleosides acylated at 2′ or at 3′ (peaks 2 and 3) [1, 4] | Fr (corrected functionalisation rate) ([1]; listed as 13) | Fr (corrected functionalisation rate) ([1]; listed as Cy3 IA ME (13)) | corrected functionalisation rate ([1]; compound 15 mM, protocol of example 3) | DoL ([3]; 10 mM Zn(OAc)2 0 mins, AP hydrolysis 0) | DoL ([3]; 10 mM Zn(OAc)2 0 mins, AP hydrolysis 4 h) | DoL ([3]; 10 mM Zn(OAc)2 15 mins, AP hydrolysis 0) | DoL ([3]; 10 mM Zn(OAc)2 15 mins, AP hydrolysis 4 h) |
| --- | --- | --- | --- | --- | --- | --- | --- | --- | --- | --- | --- | --- |
| Cn1c(=O)oc(=O)c2cc(NC(=O)CCSSCCNC(=O)CCOCCOCCOCCOCCNC(=O)CCCCC3SCC4NC(=O)NC43)ccc21 (stereo not drawn) [5Biot PEG4 SS IA Me 24] | 2.8% | 62/38 | 0.1% | – | – | – | – | – | – | – | – | – |
| CCN1/C(=C\C=C\C2=[N+](CCCCCC(=O)Nc3ccc4c(c3)c(=O)oc(=O)n4C)c3ccc(S(=O)(=O)[O-])cc3C2(C)C)C(C)(C)c2cc(S(=O)(=O)[O-])ccc21.[K+] [Cy3 IA Me 13, 1-methyl 5-Cy3-isatoic anhydride] | 4.5% | 58/42 | 0.1% | 42% | 58% | 4.5% | 4.2% | 2.6% | 1.7% | 1.5% | 1.7% | 2.5% |
